Values after ≈ are worked out from the molar mass of the structure shown. Active and inactive are the calls of the source. The calls are words filed in the database; no cut-off is given here. Square brackets hold non-standard residues; d marks the D form. Peptide text beside a SMILES is read from it. NMeF = CN[C@@H](Cc1ccccc1)C(=O)O; NMeI = CC[C@H](C)[C@H](NC)C(=O)O; NMeL = CN[C@@H](CC(C)C)C(=O)O; NMeV = CN[C@H](C(=O)O)C(C)C; NMeA = CN[C@@H](C)C(=O)O; Sar = CNCC(=O)O
Columns and labels:
[1] = Aqueous solubility of the compound at pH 7.4; type: physicochemical
[2] = Chemical stability of the compound assessed as compound remaining after enzymatic degradation after 24 hrs; type: physicochemical; conditions: read-out: Activity
[3] = Apparent permeability across rat 2/4/A1 cells in absence of pronase inhibitor; type: ADME, cell-based
[4] = Cytotoxicity against rat 2/4/A1 cells assessed as cell viability up to 200 uM after 4 hrs by MTT assay; type: cell-based; conditions: read-out: Activity
[5] = Inhibition of Amyloid beta aggregation

Row | solubility [1] [µM] | remaining at 24 h [2] [%] | Papp [3] [×10⁻⁶ cm/s] | inhibition [5] | Molecule | viability at 4 h [4] [%]
1 | > 2500 | 94 | 1.6 |  | CC[C@H](C)[C@@H](C(=O)NCC(=O)N(C)[C@@H](CC(C)C)C(=O)N[C@@H](CCSC)C(=O)N(C)[C@H](C(=O)NCC(N)=O)C(C)C)N(C)C(C)=O (Ac-[NMeI]G[NMeL]M[NMeV]G-NH2) | 95
2 | > 2500 | 100 | 1.4 |  | CC[C@H](C)[C@@H](C(=O)N(C)CC(=O)N(C)[C@@H](CC(C)C)C(=O)N[C@@H](CCSC)C(=O)N(C)[C@H](C(=O)N(C)CC(N)=O)C(C)C)N(C)C(C)=O (Ac-[NMeI][Sar][NMeL]M[NMeV][Sar]-NH2) | 95
3 | > 2500 | 94 |  |  | CC(=O)N[C@@H](CCCCN)C(=O)N(C)[C@@H](CC(C)C)C(=O)N[C@H](C(=O)N(C)[C@@H](Cc1ccccc1)C(=O)N[C@@H](Cc1ccccc1)C(=O)N(C)[C@@H](C)C(N)=O)C(C)C (Ac-K[NMeL]V[NMeF]F[NMeA]-NH2) | 95
4 | 32 | 36 | 2.8 | Active | Ac-KLVFFA-NH2 | 95

The remaining lines, values behind:

Row | Molecule | solubility [1] [µM] | remaining at 24 h [2] [%] | Papp [3] [×10⁻⁶ cm/s] | inhibition [5] | viability at 4 h [4] [%]
5 | CC[C@H](C)[C@H](NC(C)=O)C(=O)N(C)CC(=O)N[C@@H](CC(C)C)C(=O)N[C@@H](CCSC)C(=O)N[C@H](C(=O)N(C)CC(N)=O)C(C)C (Ac-I[Sar]LMV[Sar]-NH2) | > 2500 | 60 | 2.2 |  | 95
6 | CC(=O)N[C@@H](CCCCN)C(=O)N(C)[C@@H](CC(C)C)C(=O)N(C)[C@H](C(=O)N(C)[C@@H](Cc1ccccc1)C(=O)N(C)[C@@H](Cc1ccccc1)C(=O)N(C)[C@@H](C)C(N)=O)C(C)C (Ac-K[NMeL][NMeV][NMeF][NMeF][NMeA]-NH2) | 899 (≈ 751 µg/mL) | 98 | 2.3 |  | 95
7 | CC(=O)N[C@@H](CCCCN)C(=O)N[C@@H](CC(C)C)C(=O)N(C)[C@H](C(=O)N[C@@H](Cc1ccccc1)C(=O)N(C)[C@@H](Cc1ccccc1)C(=O)N[C@@H](C)C(N)=O)C(C)C (Ac-KL[NMeV]F[NMeF]A-NH2) | 1580 (≈ 1260 µg/mL) | 96 |  |  | 95
8 | Ac-IGLMVG-NH2 | 3 | 20 | 3.1 |  | 95

Reference: ChEMBL document CHEMBL1212878, “In vitro ADMET and physicochemical investigations of poly-N-methylated peptides designed to inhibit Abeta aggregation” (Bioorg Med Chem, 2010)
